Data on 24 compounds can be found in patent publication US11691972B2, “Compounds for targeted degradation of BRD9” (C4 Therapeutics, Inc., priority 2020, dated 2023).

This experiment deals with T1, BRD9 (Homo sapiens, UniProt Q9H8M2).
T1 sequence (Q9H8M2 1-597): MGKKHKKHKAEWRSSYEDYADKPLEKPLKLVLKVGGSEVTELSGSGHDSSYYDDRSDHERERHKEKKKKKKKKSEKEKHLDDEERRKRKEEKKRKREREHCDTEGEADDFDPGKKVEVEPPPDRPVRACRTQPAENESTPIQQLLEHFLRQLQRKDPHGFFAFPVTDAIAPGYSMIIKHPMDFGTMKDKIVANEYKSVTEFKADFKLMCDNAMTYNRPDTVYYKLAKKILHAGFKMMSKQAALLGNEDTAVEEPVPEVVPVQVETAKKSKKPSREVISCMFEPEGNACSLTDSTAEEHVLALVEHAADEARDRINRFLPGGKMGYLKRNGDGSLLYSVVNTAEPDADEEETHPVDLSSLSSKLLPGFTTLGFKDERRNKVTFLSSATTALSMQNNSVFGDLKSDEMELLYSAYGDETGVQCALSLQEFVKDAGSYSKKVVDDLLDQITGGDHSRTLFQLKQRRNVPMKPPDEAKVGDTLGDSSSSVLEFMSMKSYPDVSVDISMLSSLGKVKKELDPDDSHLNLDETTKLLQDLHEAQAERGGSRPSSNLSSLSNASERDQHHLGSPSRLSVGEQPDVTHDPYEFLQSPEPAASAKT
Description: HiBiT BRD9 degradation assay in 293T.166 (BRD9-HiBiT) cells. It is filed as cell-based. Set-up: endogenously expressing BRD9 with HiBiT fusion tag via CRISPR; host or cells: 293T.166 (BRD9-HiBiT), also expressing LgBiT ectopically. The conditions noted are these: Table 1; 293T.166 cells, 2.0 hours; class symbols; read-out: HiBiT-Degradation 293T.166 BRD9 2.0 hours (DC50). In outline:
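Luminescence from the Nano-Glo HiBiT lytic reagent quantified BRD9 loss after compounds (top 10 μM, half-log, 11 points, duplicates) were incubated 2 h at 37° C. with 10,000 293T.166 BRD9-HiBiT/LgBiT cells per well, with controls lacking compound or lacking reagent.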
On the technique in general: The HiBiT peptide binds its large partner to form an active luciferase.
Take `COc1cc(-c2cn(C)c(=O)c3cnccc23)cc(OC)c1CN1CCN(C(=O)CC2CCN(c3ccc(NC4CCC(=O)NC4=O)cc3C(F)(F)F)CC2)CC1` (single isomer, unassigned) [Compound 56]: the DC50 was under 0.1 µM.
To `COc1cc(-c2cn(C)c(=O)c3[nH]ncc23)cc(OC)c1CN1CCN(C(=O)CN2CCC(c3ccc(NC4CCC(=O)NC4=O)cc3C(F)(F)F)CC2)CC1` (stereo not drawn) [Compound 18] belongs under 0.1 µM; to `COc1cc(-c2cn(C)c(=O)c3[nH]ncc23)cc(F)c1CN1CCN(C(=O)NC2CCN(c3ccc(NC4CCC(=O)NC4=O)cc3)CC2)CC1` (stereo not drawn) [Compound 145, N-[1-[4-[(2,6-dioxo-3-piperidyl)amino]phenyl]-4-piperidyl]-4-[[2-fluoro-6-methoxy-4-(6-methyl-7-oxo-1H-pyrazolo[3,4-c]pyridin-4-yl)phenyl]methyl]piperazine-1-carboxamide], under 0.1 µM; to `COc1cc(-c2cn(C)c(=O)c3[nH]ncc23)cc(Cl)c1CN1CCC(CC(=O)N2CCC(c3ccc(NC4CCC(=O)NC4=O)cc3)CC2)C(F)(F)C1` (single isomer, unassigned) [Compound 204], under 0.1 µM.
On to `COc1cc(-c2cn(C)c(=O)c3[nH]ncc23)cc(Cl)c1CN1CCC(CCC2CCN(c3ccc(NC4CCC(=O)NC4=O)cc3F)CC2)CC1` (stereo not drawn) [Compound 148], for which the DC50 is under 0.1 µM.
With `COc1cc(-c2cn(C)c(=O)c3[nH]ncc23)cc(Cl)c1CN1CCC(C2CCN(c3ccc(NC4CCC(=O)NC4=O)cc3F)CC2)CC1` (stereo not drawn) [Compound 73, 3-[4-[4-[1-[[2-chloro-6-methoxy-4-(6-methyl-7-oxo-1H-pyrazolo[3,4-c]pyridin-4-yl)phenyl]methyl]-4-piperidyl]-1-piperidyl]-3-fluoro-anilino]piperidine-2,6-dione] the figure was under 0.1 µM; with `COc1cc(-c2cn(C)c(=O)c(C)c2C)cc(Cl)c1C(=O)N1CCC(C2CCN(c3ccc(NC4CCC(=O)NC4=O)cn3)CC2)CC1` (stereo not drawn) [Compound 218, 3-[[6-[4-[1-[2-chloro-6-methoxy-4-(1,4,5-trimethyl-6-oxo-3-pyridyl)benzoyl]-4-piperidyl]-1-piperidyl]-3-pyridyl]amino]piperidine-2,6-dione], under 0.1 µM.
In the case of `COc1cc(-c2cn(C)c(=O)c3cnccc23)cc(OC)c1CN1CCc2cc(C3CCN(c4ccc(NC5CCC(=O)NC5=O)cc4C(F)(F)F)CC3)ccc2C1` (stereo not drawn) [Compound 231, 3-[4-[4-[2-[[2,6-dimethoxy-4-(2-methyl-1-oxo-2,7-naphthyridin-4-yl)phenyl]methyl]-3,4-dihydro-1H-isoquinolin-6-yl]-1-piperidyl]-3-(trifluoromethyl)anilino]piperidine-2,6-dione], the DC50 is under 0.1 µM.
With `COc1cc(-c2cn(C)c(=O)c3[nH]ncc23)cc(OC)c1CNc1ccc(CC(=O)N2CCC(c3ccc(NC4CCC(=O)NC4=O)cc3)CC2)cc1` (stereo not drawn) [Compound 165, 3-[4-[1-[2-[4-[[2,6-dimethoxy-4-(6-methyl-7-oxo-1H-pyrazolo[3,4-c]pyridin-4-yl)phenyl]methylamino]phenyl]acetyl]-4-piperidyl]anilino]piperidine-2,6-dione], the DC50 is under 0.1 µM.
To `CN(C(=O)N1CCC(c2ccc(NC3CCC(=O)NC3=O)cc2)CC1)C1CCN(C(=O)c2ccc(-c3cn(C)c(=O)c4[nH]ncc34)cc2OC(F)(F)F)CC1` (stereo not drawn) [Compound 130] belongs under 0.1 µM.
`COc1cc(-c2cn(C)c(=O)c3cnccc23)cc(Cl)c1CN1CCC(N2CCN(c3ccc(NC4CCC(=O)NC4=O)cc3F)CC2)C(F)(F)C1` (single isomer, unassigned) [Compound 180, 3-[4-[4-[1-[[2-chloro-6-methoxy-4-(2-methyl-1-oxo-2,7-naphthyridin-4-yl)phenyl]methyl]-3,3-difluoro-4-piperidyl]piperazin-1-yl]-3-fluoro-anilino]piperidine-2,6-dione]: the DC50 was under 0.1 µM.
For the compound `COc1cc(-c2cn(C)c(=O)c3[nH]ncc23)cc(OC)c1CN1CCN(C(=O)CN2CCC(c3ccc(NC4CCC(=O)NC4=O)cc3)CC2)CC1` (single isomer, unassigned) [Compound 2], the DC50 was under 0.1 µM.
To `COc1cc(-c2cn(C)c(=O)c3[nH]ncc23)cc(Cl)c1CN1CCc2c(cccc2NC2CCN(c3ccc(NC4CCC(=O)NC4=O)cc3)CC2)C1` (stereo not drawn) [Compound 171, 3-[4-[4-[[2-[[2-chloro-6-methoxy-4-(6-methyl-7-oxo-1H-pyrazolo[3,4-c]pyridin-4-yl)phenyl]methyl]-3,4-dihydro-1H-isoquinolin-5-yl]amino]-1-piperidyl]anilino]piperidine-2,6-dione] belongs under 0.1 µM.
With `Cn1cc(-c2cc(Cl)c(C(=O)N3CCN(C(=O)CN4CCC(c5ccc(NC6CCC(=O)NC6=O)cc5)CC4)CC3)cc2Cl)c2cn[nH]c2c1=O` (stereo not drawn) [Compound 48] the figure was 0.1 to 0.5 µM.
As for `COc1cc(-c2cn(C)c(=O)c(C)c2C)cc(Cl)c1C(=O)N1CCC(N(C)C(=O)N2CCC(c3ccc(NC4CCC(=O)NC4=O)cc3F)CC2)CC1` (stereo not drawn) [Compound 140], the DC50 is under 0.1 µM.
Regarding `Cn1cc(-c2ccc(CN3CCN(C(=O)CN4CCC(c5ccc(NC6CCC(=O)NC6=O)cc5)CC4)CC3)c(OC(F)(F)F)c2)c2ccc(F)cc2c1=O` (stereo not drawn) [Compound 36], the DC50 is under 0.1 µM.
Turning to `COc1cc(-c2cn(C)c(=O)c3cnccc23)cc(Cl)c1CN1CCC(N2CCN(c3ccc(NC4CCC(=O)NC4=O)cc3F)CC2)C(F)(F)C1` (single isomer, unassigned) [Compound 181, 3-[4-[4-[1-[[2-chloro-6-methoxy-4-(2-methyl-1-oxo-2,7-naphthyridin-4-yl)phenyl]methyl]-3,3-difluoro-4-piperidyl]piperazin-1-yl]-3-fluoro-anilino]piperidine-2,6-dione], the DC50 was under 0.1 µM.
As for `COc1cc(-c2cn(C)c(=O)c3[nH]ncc23)cc(OC)c1CN1C[C@H]2C[C@@H]1CN2C(=O)CN1CCC(c2ccc(NC3CCC(=O)NC3=O)cc2)CC1` (stereo partly drawn) [Compound 14], the DC50 is under 0.1 µM.
Consider `COc1cc(-c2cn(C)c(=O)c3cnccc23)cc(Cl)c1CN1CCC(N2CCN(c3ccc(NC4CCC(=O)NC4=O)cc3Cl)CC2)C(F)(F)C1` (stereo not drawn) [Compound 186], for which the DC50 is under 0.1 µM.
As for `COc1cc(-c2cn(C)c(=O)c3cnccc23)cc(Cl)c1CN1CCC(N(C)C(=O)N2CCC(c3ccc(NC4CCC(=O)NC4=O)cc3)CC2)CC1` (stereo not drawn) [Compound 115], the DC50 is under 0.1 µM.
As for `COc1cc(-c2cn(C)c(=O)c3[nH]ncc23)cc(F)c1CN1CCN(C(=O)CN2CCC(c3ccc(N(C)C4CCC(=O)NC4=O)cc3)CC2)CC1` (stereo not drawn) [Compound 35], the DC50 is under 0.1 µM.
As to `COc1cc(-c2cn(C)c(=O)c3[nH]ncc23)cc(OC)c1CN1CC[C@@H](NC(=O)CN2CCC(c3ccc(NC4CCC(=O)NC4=O)cc3)CC2)C1` (stereo in doubt) [Compound 69, N-[1-[[2,6-dimethoxy-4-(6-methyl-7-oxo-1H-pyrazolo[3,4-c]pyridin-4-yl)phenyl]methyl]pyrrolidin-3-yl]-2-[4-[4-[(2,6-dioxo-3-piperidyl)amino]phenyl]-1-piperidyl]acetamide], the DC50 fell in the range of 0.1 to 0.5 µM.
With `Cc1c(-c2ccc(C(=O)N3CCC(C4CCN(c5ccc(NC6CCC(=O)NC6=O)cc5F)CC4)CC3)c3[nH]ccc23)cn(C)c(=O)c1C` (stereo not drawn) [Compound 217] the figure was under 0.1 µM.
As to `Cn1cc(-c2ccc(C(=O)N3CCC(C4CCN(c5ccc(NC6CCC(=O)NC6=O)cc5F)CC4)CC3)c(OC(F)(F)F)c2)c2ccncc2c1=O` (stereo not drawn) [Compound 211], the DC50 is under 0.1 µM.

Broadly, the DC50 is the concentration giving 50% degradation.
